Experimental data published in patent US12419869B2, “Methods of treating multiple sclerosis” (Vanda Pharmaceuticals Inc., priority 2021, dated 2025).

Assays:
Type in all cases: in vivo, human
[1] = system: adult subjects with relapsing MS; assay: Brain MRI lesions (CUAL, Gd+ T1, new/enlarging T2) from baseline to Week 108
Description: CUAL are new Gd+T1 lesions plus new or enlarging T2 lesions (without double-counting of lesions).
MRI scans were performed at Visits 2 (Baseline), 10 (Week 60), and 14 (EOT) and at any unscheduled visit (U1, U2, etc.). If applicable, MRI scans also were performed at the corresponding visits in the PTOP (Visits 10A and 14A). Testing at all visits were performed up to 7 days prior to or after the visit date.
MRI variables included the number and volume of new and total Gd+ lesions on T1-weighted MRI scans, number of new and enlarging lesions and lesion volume on T2-weighted MRI, and global measures of loss of brain tissue.
T1-weighted imaging before and after i.v. administration of 0.1 mmol/kg body weight (=0.2 mL/kg) of Gd as well as PD-T2-weighted imaging was performed. Gd may cause nausea and vomiting and in very rare cases allergic reactions that could require immediate anti-anaphylactic therapy (such as steroids, epinephrine/adrenaline, etc.).
Patients (18-55 years) with RMS (expanded disability status scale scores: 0-5.5) were randomized (1:1) to receive ponesimod (PON) 20 mg or teriflunomide (TER) 14 mg for 108 weeks. MRI assessments were: volume of T2 lesions; mean number of new gadolinium-enhancing (Gd+) T1 lesions and new/enlarging T2 lesions; and absence of active MRI lesions at week 108. NEDA-3 status (absence of confirmed relapse, Gd+T1 lesions and new/enlarging T2 lesions on annual MRIs, and 12-week confirmed disability accumulation) was evaluated from baseline to week 108.

[2] = system: adult subjects with relapsing MS; assay: Confirmed relapses / annualized relapse rate up to EOS, phase III study ponesimod 20 mg vs teriflunomide 14 mg
Description: Primary efficacy variable/primary timepoint: The primary endpoint was annualized relapse rate (ARR) up to the end of study (EOS) defined as the number of confirmed relapses per subject-year. All available data up to EOS, regardless of treatment discontinuation was included (ITT approach).
The primary statistical analysis of the ARR endpoint was performed on the FAS using a negative binomial model for confirmed relapses, with the stratification variables prior use of disease-modifying therapies (DMTs) and EDSS category as well as the number of relapses in the year prior to study entry, included in the model and time in the study as an offset variable. Sensitivity analyses was performed on the PPS and also based on different subgroups derived from baseline variables.
A relapse is defined as new, worsening or recurrent neurological symptoms that occur at least 30 days after the onset of a preceding relapse, and that last at least 24 hours, in the absence of fever or infection.
A relapse was confirmed by the treating neurologist only when the subjects' symptoms were accompanied by an increase in EDSS/FS (functional system) scores, which were consistent with the subject's symptoms, from a previous clinically stable EDSS/FS assessment (i.e., performed at least 30 days after the onset of any previous relapse), obtained by the efficacy assessor and consistent with the following: • An increase of at least half a step (0.5 points; unless EDSS=0, then an increase of at least 1.0 points is required) or • An increase of at least 1.0 point in at least two FS scores, or • An increase of at least 2.0 points in at least one FS score (excluding bladder/bowel and cerebral).
The primary statistical analysis was performed up to EOS on the FAS using a negative binomial regression model for confirmed relapses, with treatment as a factor and the binary stratification variables (EDSS≤3.5 versus EDSS>3.5; DMTs within last 2 years prior to randomization [Yes/No]) and the number of relapses in the year prior to study entry (categories≤1 (or missing) and […]) included in the model. The model also included an offset variable defined as the log of time on study (in years) from randomization up to EOS.

[3] = system: adult subjects with relapsing MS; assay: Treatment-emergent adverse events and premature treatment discontinuation, phase III study (Study 1)
Description: A total of 1438 MS patients have received PONVORY at doses of at least 2 mg daily. These patients were included in Study 1 (2-year active-controlled versus teriflunomide 14 mg) [see Clinical Studies (14)] and in a Phase 2 (6-month placebo-controlled) study in patients with MS and the uncontrolled extension studies.

`C/C(O)=C(\C#N)C(=O)Nc1ccc(C(F)(F)F)cc1` [Teriflunomide, reference compound] was tested, and the “CUAL mean estimate (Lesions per year)” value ([1]; baseline to Week 108, negative binomial regression, Full Analysis Set) was 3.164 lesions per year, the “Mean number of new Gd+ T1 lesions per scan / per MRI” value ([1]; baseline to week 108) was 0.43 and the “Mean estimate (ARR), confirmed relapses up to EOS” value ([2]; negative binomial regression, Full Analysis Set, teriflunomide 14 mg, ponesimod 20 mg) was 0.290. For the same compound, the “Percentage of patients without relapse” value ([2]; study period of approximately 108 weeks) was 60.6%, the “Discontinuation reason: Death” value ([3]; Safety Set) was “(0.4) %” and the “Subjects who prematurely discontinued study treatment” value ([3]; Safety Set) was “(16.4) %”. For the same compound, the “Subjects with at least one Fatal AE” value ([3]; Safety Set) was “(0.4) %”, the “Day 1 AESI Electrocardiogram QT prolonged” value ([3]; human, in vivo) was “(0.2) %” and the “Day 1 AESI Presyncope” value ([3]; human, in vivo) was “(02) %”. The “AE leading to discontinuation, SOC Blood and lymphatic system disorders” value ([3]; human, in vivo, 2 year) was “(0.4) %”, the “AE leading to discontinuation, SOC Cardiac disorders” value ([3]; human, in vivo, 2 year) was “(0.4) %” and the “AE leading to discontinuation, SOC Gastrointestinal disorders” value ([3]; human, in vivo, 2 year) was “(0.7) %”. The “AE leading to discontinuation, SOC General disorders and administration site conditions” value ([3]; human, in vivo, 2 year) was “(0.4) %”, the “AE leading to discontinuation, SOC Hepatobiliary disorders” value ([3]; human, in vivo, 2 year) was “(0.4) %” and the “AE leading to discontinuation, SOC Investigations” value ([3]; human, in vivo, 2 year) was “(1.8) %”. For the same compound, the “AE leading to discontinuation, SOC Musculoskeletal and connective tissue disorders” value ([3]; human, in vivo, 2 year) was “(0.2) %”, the “AE leading to discontinuation, SOC Neoplasms benign, malignant and unspecified (incl cysts and polyps)” value ([3]; human, in vivo, 2 year) was “(0.2) %” and the “AE leading to discontinuation, SOC Nervous system disorders” value ([3]; human, in vivo, 2 year) was “(0.7) %”. The “AE leading to discontinuation, SOC Pregnancy, puerperium and perinatal conditions” value ([3]; human, in vivo, 2 year) was “(0.5) %”, the “AE leading to discontinuation, SOC Psychiatric disorders” value ([3]; human, in vivo, 2 year) was “(0.2) %” and the “AE leading to discontinuation, SOC Reproductive system and breast disorders” value ([3]; human, in vivo, 2 year) was “(0.2) %”. For the same compound, the “AE leading to discontinuation, SOC Skin and subcutaneous tissue disorders” value ([3]; human, in vivo, 2 year) was “(0.4) %”, the “AE leading to discontinuation, SOC Social circumstances” value ([3]; human, in vivo, 2 year) was “(0.2) %” and the “AE leading to discontinuation, SOC Surgical and medical procedures” value ([3]; human, in vivo, 2 year) was “(0.2) %”. The “AESI Effect on heart rate and rhythm (including hypotension)” value ([3]; human, in vivo, 2 year) was “(4.2) %”, the “AESI Macular edema” value ([3]; human, in vivo, 2 year) was “(0.2) %” and the “AESI Non-skin malignancy” value ([3]; human, in vivo, 2 year) was “(0.2) %”. For the same compound, the “AESI Skin malignancy” value ([3]; human, in vivo, 2 year) was “(0.2) %”, the “Discontinuation reason: Physician decision, Adverse event” value ([3]; human, in vivo, 2 year) was “(1.6) %” and the “Discontinuation reason: Pre-specified study treatment discontinuation criteria” value ([3]; human, in vivo, 2 year) was “(2.8) %”. For the same compound, the “Discontinuation reason: Subject decision, Tolerability related” value ([3]; human, in vivo, 2 year) was “(0.9) %”, the “Incidence of basal cell carcinoma” value ([3]; human, in vivo, 2 year) was 0.2% and the “Overall rate of infections” value ([3]; human, in vivo, 2 year) was 52.1%. The “Subjects discontinued due to AEs or tolerability related reasons” value ([3]; human, in vivo, 2 year) was 2.5%, the “Subjects with at least one Drug-Related AE” value ([3]; human, in vivo, 2 year) was “(42.0) %” and the “Subjects with at least one Severe AE” value ([3]; human, in vivo, 2 year) was “(4.6) %”. For the same compound, the “TEAE ALT increased” value ([3]; human, in vivo, 2 year) was 9.4%, the TEAE headache ([3]; human, in vivo, 2 year) was 12.7% and the TEAE nasopharyngitis ([3]; human, in vivo, 2 year) was 16.8%. For the same compound, the “TEAE upper respiratory tract infection” value ([3]; human, in vivo, 2 year) was 10.4%, the “Adverse reaction: C-reactive protein increased” value ([3]; human, in vivo, 2 years) was 1% and the “Adverse reaction: Cough” value ([3]; human, in vivo, 2 years) was 2%. For the same compound, the “Adverse reaction: Dizziness” value ([3]; human, in vivo, 2 years) was 3%, the “Adverse reaction: Dyspnea” value ([3]; human, in vivo, 2 years) was 1% and the “Adverse reaction: Hepatic transaminase elevation” value ([3]; human, in vivo, 2 years) was 12%. For the same compound, the “Adverse reaction: Hypercholesterolemia” value ([3]; human, in vivo, 2 years) was 1%, the “Adverse reaction: Hypertension” value ([3]; human, in vivo, 2 years) was 9% and the “Adverse reaction: Pain in extremity” value ([3]; human, in vivo, 2 years) was 3%. The “Adverse reaction: Pyrexia” value ([3]; human, in vivo, 2 years) was 1%, the “Adverse reaction: Somnolence” value ([3]; human, in vivo, 2 years) was 2% and the “Adverse reaction: Urinary tract infection” value ([3]; human, in vivo, 2 years) was 5%. The “Adverse reaction: Vertigo” value ([3]; human, in vivo, 2 years) was 1%, the “AESI Macular edema” value ([3]; in vivo) was “none” and the “Discontinuation reason: Lost to follow-up” value ([3]; in vivo) was “(0.5) %”. For the same compound, the “Discontinuation reason: Physician decision” value ([3]; in vivo) was “(4.1) %”, the “Discontinuation reason: Physician decision, Lack of efficacy/treatment failure” value ([3]; in vivo) was “(1.8) %” and the “Discontinuation reason: Physician decision, Other” value ([3]; in vivo) was “(0.7) %”. The “Discontinuation reason: Subject decision” value ([3]; in vivo) was “(8.7) %”, the “Discontinuation reason: Subject decision, Efficacy related” value ([3]; in vivo) was “(2.5) %” and the “Discontinuation reason: Subject decision, Not known” value ([3]; in vivo) was “(0.7) %”. For the same compound, the “Discontinuation reason: Subject decision, Other” value ([3]; in vivo) was “(4.6) %”.
